Data taken from patent EP1149096B1, “TRICYCLIC PYRIDINE N-OXIDES VASOPRESSIN AGONISTS” (Wyeth, priority 1999, dated 2000).

Tested on: Vasopressin V2
Test: Vasopressin V2 agonist effects in normal conscious water-loaded rats
Assay type: in vivo
Conditions: oral dose of 10 mg/kg, urine collected for four hours after dosing, Sprague-Dawley (CD) rats, water-loaded 30 ml/kg; for Changes in Urinary Osmolality: Percent changes in osmolality vs. control; for Urine Volume (% decrease): Percent decrease in urine volume vs. control
Description: Vasopressin V2 Agonist Effects of Test Compounds in Normal Conscious Water-Loaded Rats:
Male or female normotensive Sprague-Dawley rats (Charles River Laboratories, Inc., Kingston, NY) of 350-500 g body weight were supplied with standard rodent diet (Purina Rodent Lab. Chow 5001) and water ad libitum. On the day of test, rats were placed individually into metabolic cages equipped with devices to separate the feces from the urine and containers for collection of urine. A test compound or a reference agent was given at an oral dose of 10 mg/kg in a volume of 10 ml/kg. The vehicle used was 20% dimethylsulfoxide (DMSO) in 2.5% preboiled corn starch. Thirty minutes after dosing the test compound, rats were gavaged with water at 30 ml/kg into the stomach using a feeding needle. During the test, rats were not provided with water or food. Urine was collected for four hours after dosing of the test compound. At the end of four hours, urine volume was measured. Urinary osmolality was determined using a Fiske One-Ten Osmometer (Fiske Associates, Norwood, MA, 02062) or an Advanced CRYOMATIC Osmometer, Model 3C2 (Advanced Instruments, Norwood, MA). Determinations of Na^+, K^+ and Cl^- ion were carried out using ion specific electrodes in a Beckman SYNCHRON EL-ISE Electrolyte System analyzer. The urinary osmolality should increase proportionally. In the screening test, two rats were used for each compound. If the difference in the urine volume of the two rats was greater than 50%, a third rat was used.

| SMILES | Changes in Urinary Osmolality | Urine Volume (% decrease) |
| --- | --- | --- |
| Cc1ccn(-c2ccc(C(=O)N3Cc4ccc[n+]([O-])c4Nc4ccccc43)c(C(F)(F)F)c2)n1 [Example 4, 4-[(3-Methyl-1H-pyrazol-1-yl)-2-(trifluoromethyl)-phenyl]-(6,11-dihydro-5H-pyrido[2,3-b][1,5]benzodiazepin-6-yl)-methanone 1-oxide] | 331% | 72% |
| Cc1ccn(-c2ccc(C(=O)N3Cc4ccc[n+]([O-])c4Nc4ccccc43)c(Br)c2)n1 [Example 3, [2-Bromo-4-(3-methyl-1H-pyrazol-1-yl)-phenyl]-(6,11-dihydro-5H-pyrido [2,3-b][1,5]benzodiazepin-6-yl)-methanone-1-oxide] | 747% | 90% |
| Cc1ccn(-c2ccc(C(=O)N3Cc4ccc[n+]([O-])c4Nc4ccccc43)c(Cl)c2)n1 [Example 1, [2-Chloro-4-(3-methyl-1H-pyrazol-1-yl)-phenyl]-(6,11-dihydro-5H-pyrido[2,3-b][1,5]benzodiazepin-6-yl)-methanone-1-oxide] | 753% | 80% |
